Experiments:
[1] = Clinical trial of Example 2: safety and tolerability (DLTs, TRAEs), dose escalation and expansion; assay type: in vivo
Text: Purpose: The purpose of the study is to, among other things, determine safety and effectiveness of a compound of Formula I (or salt thereof) when combined with nivolumab and in combination with both nivolumab and ipilimumab in patients with cancers that are advanced or have spread. Pharmacokinetics and pharmacodynamics (including immunomodulatory assays) of a compound of Formula I when combined with nivolumab and in combination with nivolumab and ipilimumab in this patient population will also be assessed.
Primary Outcome Measures: • Safety and tolerability of a compound of Formula I as measured by a composite of the incidence of adverse events (AEs), serious adverse events (SAEs), AEs leading to discontinuation, deaths, and clinical laboratory test abnormalities. The time frame is 100 days after the last dose of study therapy. • Safety of a compound of Formula I plus nivolumab as measured by a composite of the incidence of adverse events (AEs), serious adverse events (SAEs), AEs leading to discontinuation, deaths, and clinical laboratory test abnormalities. The time frame is 100 days after the last dose of study therapy. • Safety of a compound of Formula I plus both nivolumab and ipilimumab as measured by incidence of adverse events (AEs), serious adverse events (SAEs), AEs leading to discontinuation, deaths, and clinical laboratory test abnormalities. The time frame is 100 days after the last dose of study therapy. • Anti-tumor activity of a compound of Formula I administered in combination with nivolumab as measured by the best overall response (BOR) as measured by CT scan. The time frame is approximately 3 years. • Anti-tumor activity of a compound of Formula I administered in combination with nivolumab as measured by the duration of response (DOR) as measured by CT scan. The time frame is approximately 3 years. • Anti-tumor activity of a compound of Formula I administered in combination with nivolumab as measured by progression-free survival rates (PFSRs) as measured by CT scan. The time frame is approximately 3 years. • Anti-tumor activity of a compound of Formula I administered in combination with both nivolumab and ipilimumab as measured by the best overall response (BOR) as measured by CT scan. The time frame is approximately 3 years. • Anti-tumor activity of a compound of Formula I administered in combination with both nivolumab and ipilimumab as measured by the duration of response (DOR) as measured by CT scan. The time frame is approximately 3 years. • Anti-tumor activity of a compound of Formula I administered in combination with both nivolumab and ipilimumab as measured by progression-free survival rates (PFSRs) as measured by CT scan. The time frame is approximately 3 years.
1. Combination Therapy (Dose Escalation). Participants with advanced cancers received a compound of Formula I orally (PO), daily (QD) at a dose of 25 mg, 50 mg, 100 mg or 200 mg for all advanced cancers over a 2 week lead-in period. Participants were then also administered nivolumab intravenously at a dose of 240 mg once every two weeks.
2. Combination Therapy (Dose Expansion). A total of 219 participants with select previously treated advanced malignancies received a compound of Formula I at a dose of 100 or 200 mg orally once daily plus nivolumab at a dose of 240 mg intravenously once every two weeks (Q2W) or at a dose of 480 mg intravenously once every four weeks (Q4W). Advanced malignancies included cervical cancer (21 patients), diffuse large B-cell lymphoma (DLBCL) (4 patients), non-small cell lung cancer (NSCLC) (7 patients), renal cell carcinoma (RCC) (0 patients); squamous cell carcinoma of the head and neck (SCCHN) (16 patients), bladder cancer (18 patients), pancreatic cancer (18 patients), melanoma (21 patients), and ASST, a mixed tumor type cohort consisting of sarcoma, endometrial and breast cancer (19 patients). […]

kynurenine = test: Kynurenine in paired tumor samples and serum of patients (FIG. 1A, 1B); assay type: in vivo, human
Procedure: FIG. 1A illustrates intratumoral kynurenine concentrations at 100 mg, 200 mg or 400 mg of the compound of Formula (I).
FIG. 1B illustrates percent serum kynurenine reduction at 20 mg, 50 mg, 100 mg, 200 mg or 400 mg of the compound of Formula (I).
Dark bars represent a pretreatment kynurenine condition and light bars represent an on-treatment kynurenine (C1D15) condition. Asterisks (*) denotes samples below the lower limit of quantitation.

[2] = Clinical trial of Example 10: safety (TRAEs) and end of treatment disposition; assay type: in vivo
Text: Primary Outcome Measures: • Safety and tolerability of a compound of Formula I as measured by a composite of the incidence of adverse events (AEs), serious adverse events (SAEs), AEs leading to discontinuation, deaths, and clinical laboratory test abnormalities. The time frame is 100 days after the last dose of study therapy. • Safety of a compound of Formula I plus nivolumab as measured by a composite of the incidence of adverse events (AEs), serious adverse events (SAEs), AEs leading to discontinuation, deaths, and clinical laboratory test abnormalities. […] The time frame is approximately 3 years. • Anti-tumor activity of a compound of Formula I administered in combination with nivolumab as measured by the duration of response (DOR) as measured by CT scan. The time frame is approximately 3 years. • Anti-tumor activity of a compound of Formula I administered in combination with nivolumab as measured by progression-free survival rates (PFSRs) as measured by CT scan. The time frame is approximately 3 years.
1. Combination Therapy (Dose Escalation).
2. Combination Therapy (Dose Expansion). […] Three patients received the compound of Formula I alone. IDO1 inhibitor therapy is not permitted. Prior exposure to immune checkpoint inhibitors or therapy targeting T-cell costimulation requires a washout period of >4 weeks.

[3] = patients with advanced bladder cancer

SMILES: C[C@@H](C(=O)Nc1ccc(Cl)cc1)[C@H]1CC[C@@H](c2ccnc3ccc(F)cc32)CC1 [compound of Formula I, (R)-N-(4-chlorophenyl)-2-(cis-4-(6-fluoroquinolin-4-yl)cyclohexyl)propanamide]
- # of DLTs/# DLT evaluable ([1]; 25 mg, dose escalation): 0/7
- # of DLTs/# DLT evaluable ([1]; 50 mg, dose escalation): 0/8
- # of DLTs/# DLT evaluable ([1]; 100 mg, dose escalation): 1/9
- # of DLTs/# DLT evaluable ([1]; 200 mg, dose escalation): 3/12
- # of DLTs/# DLT evaluable ([1]; 400 mg, dose escalation): 2/4
- DLTs ([1]; 400 mg, dose escalation): grade 3 AST/ALT; grade 2 anemia, fatigue
- Maximum tolerated dose ([1]; during escalation): 200 mg
- reduction in serum kynurenine levels (kynurenine; 100 mg once daily, FIG. 1B): ~60%
- intratumoral kynurenine (kynurenine; 39 paired pre- vs on-treatment (C1D15) tumor samples across various tumor types, FIG. 1A): reduced across all doses
- tolerability of 100 mg ([2]; 100 mg vs the 200-mg dose, with nivolumab): improved tolerability vs the 200-mg dose
- tolerability [2, 3]: well tolerated
- treatment-related deaths [2, 3]: No treatment-related deaths occurred

Reference: patent US11351163B2, “Compositions and methods of treating cancer” (BRISTOL-MYERS SQUIBB COMPANY, priority 2017, dated 2022)
